Assay results taken from PMC9527238, “Glutamate and GABAA receptor crosstalk mediates homeostatic regulation of neuronal excitation in the mammalian brain” (Signal Transduction and Targeted Therapy, 2022).

How the values were obtained:
Assay type in all cases: cell-based
α2K104Dβγ GABAAR = target: T1, α2K104Dβγ GABAAR (Rattus norvegicus, UniProt P23576+P63138, K132D); assay: Patch clamp, HEK293, mutant GABAAR; conditions: HEK293, read-out: Glutamate potentiation of GABA currents, % of control, normalized to respective wild-type receptor
T1 construct: expressed in transfected cells; host or cells: HEK293
T1 sequence (P23576 29-451 K132D): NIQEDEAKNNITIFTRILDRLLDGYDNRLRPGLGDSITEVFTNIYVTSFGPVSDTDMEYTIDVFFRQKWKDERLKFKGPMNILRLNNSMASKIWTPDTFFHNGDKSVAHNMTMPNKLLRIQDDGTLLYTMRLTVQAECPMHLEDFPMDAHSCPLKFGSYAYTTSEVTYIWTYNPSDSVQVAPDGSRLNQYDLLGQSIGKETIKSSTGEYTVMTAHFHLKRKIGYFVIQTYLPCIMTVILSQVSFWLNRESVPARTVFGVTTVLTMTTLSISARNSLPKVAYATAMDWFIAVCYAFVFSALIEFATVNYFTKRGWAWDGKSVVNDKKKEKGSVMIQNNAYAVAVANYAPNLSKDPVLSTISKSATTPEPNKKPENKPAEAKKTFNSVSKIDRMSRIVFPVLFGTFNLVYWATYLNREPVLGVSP
T1 sequence (P63138 26-474): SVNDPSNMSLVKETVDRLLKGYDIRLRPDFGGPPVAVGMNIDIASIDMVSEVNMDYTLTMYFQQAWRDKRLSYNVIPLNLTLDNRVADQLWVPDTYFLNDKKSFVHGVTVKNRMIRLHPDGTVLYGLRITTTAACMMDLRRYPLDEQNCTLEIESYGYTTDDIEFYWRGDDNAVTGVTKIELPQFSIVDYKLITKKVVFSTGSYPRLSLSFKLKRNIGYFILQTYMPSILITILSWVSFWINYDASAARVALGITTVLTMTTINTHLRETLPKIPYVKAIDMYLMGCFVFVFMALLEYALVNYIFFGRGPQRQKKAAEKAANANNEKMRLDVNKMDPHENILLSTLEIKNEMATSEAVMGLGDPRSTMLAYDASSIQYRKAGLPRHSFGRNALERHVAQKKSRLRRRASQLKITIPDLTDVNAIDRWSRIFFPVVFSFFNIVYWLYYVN
T1 sequence (P18508 39-466 partner): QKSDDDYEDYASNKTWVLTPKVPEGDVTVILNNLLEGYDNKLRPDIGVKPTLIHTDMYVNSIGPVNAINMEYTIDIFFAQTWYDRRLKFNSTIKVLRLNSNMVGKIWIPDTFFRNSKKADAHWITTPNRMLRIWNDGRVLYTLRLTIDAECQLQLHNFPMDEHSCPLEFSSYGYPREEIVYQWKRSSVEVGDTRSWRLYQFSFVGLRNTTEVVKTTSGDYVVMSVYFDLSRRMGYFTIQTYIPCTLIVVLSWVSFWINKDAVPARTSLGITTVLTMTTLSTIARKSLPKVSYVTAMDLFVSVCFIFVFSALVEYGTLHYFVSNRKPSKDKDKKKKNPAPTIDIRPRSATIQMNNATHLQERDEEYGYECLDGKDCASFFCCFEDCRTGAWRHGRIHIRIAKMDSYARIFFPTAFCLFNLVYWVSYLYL
Protocol: (§1) Fig. 4 Property characterization of glutamate binding sites in HEK cells expressing wild-type or mutated αβγ GABAARs. a, b The effects of electrostatic charge and/or size of the pocket-forming residues on glutamate-induced functional modulation.
(§2) HEK293 cells were cultured in DMEM (Invitrogen) supplemented with 10% fetal bovine serum. Cells were grown to 40–60% confluence and transiently transfected using Lipofectamine 2000 (Invitrogen) with 1:0.5–1 plasmid/lipid ratio. Cells were transfected with a pBK-CMV expression vector containing a rat recombinant GABAAR α, β or γ subunits. Co-transections were done with a plasmid ratio of 1:1 αβ and 2:2:1 for αβγ subunit combinations, respectively. pcDNA3.1-GFP was also co-transfected along with GABAAR subunits as a transfected marker in order to facilitate the visualization of the transfected cells during electrophysiological experiments. Cells were re-plated on glass coverslips after 15–20 h transfection and were cultured for an additional 15–24 h before whole-cell patch-clamp recordings.
(§3) The site-directed mutagenesis of α, β or γ subunits were performed by using the QuikChange method (Stratagene). […] Wild-type or mutant subunits were transfected in HEK293 cells and subjected to electrophysiology examinations.
(§4) Whole-cell patch-clamp recordings were performed under voltage-clamp mode using an Axopatch 200B or 1D patch-clamp amplifier (Molecular Devices) on HEK293 cells and cultured neurons. Whole-cell currents were recorded at a holding potential of −60 mV, and signals were filtered at 2 kHz, digitized at 10 kHz (Digidata 1322 A). Recording pipettes (3–5 MΩ) were filled with the intracellular solution that contained (mM): CsCl 140, HEPES 10, Mg-ATP 4, QX-314 5, pH 7.20; osmolarity, 290–295 mOsm. BAPTA (10 mM) was added in the intracellular solution. The coverslips were continuously superfused with the extracellular solution containing (mM): NaCl 140, KCl 5.4, HEPES 10, MgCl2 1.0, CaCl2 1.3, glucose 20, pH 7.4; osmolarity, 305–315 mOsm. […] Dose–response curves were created by fitting data to Hill equation: I = Imax/[1 + (EC50/[A])^n], where I is the current, Imax is the maximum current, [A] is a given concentration of agonist, n is the Hill coefficient. […] All experiments were performed at room temperature.

rat α1β2 GABAARs = target: T2, rat α1β2 GABAARs (Rattus norvegicus, UniProt P62813+P63138); assay: Whole-cell patch clamp of GABA-evoked currents, HEK293 cells expressing α1β2
T2 construct: expressed in transfected cells; host or cells: HEK293
T2 sequence (P62813 28-455): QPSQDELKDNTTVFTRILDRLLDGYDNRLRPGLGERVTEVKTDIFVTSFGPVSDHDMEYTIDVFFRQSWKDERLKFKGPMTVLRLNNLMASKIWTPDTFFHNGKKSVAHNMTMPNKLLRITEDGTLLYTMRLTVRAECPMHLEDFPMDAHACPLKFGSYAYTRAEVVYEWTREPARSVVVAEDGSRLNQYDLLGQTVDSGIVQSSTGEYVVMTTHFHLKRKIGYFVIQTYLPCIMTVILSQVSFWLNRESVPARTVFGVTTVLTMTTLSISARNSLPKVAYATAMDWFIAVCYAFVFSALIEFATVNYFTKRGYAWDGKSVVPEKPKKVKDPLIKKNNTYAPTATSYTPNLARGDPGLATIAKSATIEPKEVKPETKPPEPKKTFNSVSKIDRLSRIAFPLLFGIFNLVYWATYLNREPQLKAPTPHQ
T2 sequence (P63138 26-474): as the sequence (P63138 26-474) above
Description: Co-expression of the α and β subunits is the minimum requirement for a functional recombinant GABAAR expressed in a heterologous cell line such as HEK293, while co-expression of the α, β and γ subunits is required for the recombinant receptor with a full pharmacological profile.[2] We therefore transiently expressed either rat α1β2 or α1β2γ2 subunits in HEK293 cells.
HEK293 cells were transiently transfected with rat GABAAR α1/β2 (a–e) or α1/β2/γ2 (f) subunits. Whole-cell voltage-clamp recordings were performed with a chloride-based intracellular recording solution at a holding membrane potential of −60 mV.
as §2, §4

α2/β2/γ2 GABAARs = target: T3, α2/β2/γ2 GABAARs (Rattus norvegicus, UniProt P23576+P63138); assay: Patch clamp, HEK293, α2-containing GABAAR; conditions: wild-type α2/β2/γ2
T3 construct: expressed in transfected cells; host or cells: HEK293
T3 sequence (P23576 29-451): as the sequence (P23576 29-451 K132D) above, with D104K counted along it
T3 sequence (P63138 26-474): as the sequence (P63138 26-474) above
T3 sequence (P18508 39-466 partner): as the sequence (P18508 39-466 partner) above

αK104Wβγ GABAAR = target: T4, αK104Wβγ GABAAR (Rattus norvegicus, UniProt P62813+P63138, K131W); assay: Patch clamp, HEK293, mutant GABAAR; conditions: HEK293, read-out: Glutamate potentiation of GABA currents, % of control, normalized to wild-type α1β2γ2
T4 construct: expressed in transfected cells; host or cells: HEK293
T4 sequence (P62813 28-455 K131W): as the sequence (P62813 28-455) above, with K104W counted along it
T4 sequence (P63138 26-474): as the sequence (P63138 26-474) above
T4 sequence (P18508 39-466 partner): as the sequence (P18508 39-466 partner) above
Description: (§5) To further determine the relative significance between the electrostatic and the side chain steric arrangements of these critical amino acid residues in their interaction with glutamate, we next studied the effects of substitution of these amino acids with amino acids of various sizes or charges on the glutamate potentiation. We substituted α1K104, α1E137, α1K155, or β2E181 with […], a non-charged amino acid, in order to perturb the electrostatic accessibility of glutamate to the binding pocket.
as §1, §2, §3, §4

αβE181Dγ GABAAR = target: T5, αβE181Dγ GABAAR (Rattus norvegicus, UniProt P62813+P63138, E206D); assay: Patch clamp, HEK293, mutant GABAAR; conditions: HEK293, read-out: Glutamate potentiation of GABA currents, % of control, normalized to wild-type α1β2γ2
T5 construct: expressed in transfected cells; host or cells: HEK293
T5 sequence (P62813 28-455): as the sequence (P62813 28-455) above
T5 sequence (P63138 26-474 E206D): as the sequence (P63138 26-474) above, with E181D counted along it
T5 sequence (P18508 39-466 partner): as the sequence (P18508 39-466 partner) above
Description: as §5, §1, §2, §3, §4

αβE181Wγ GABAAR = target: T6, αβE181Wγ GABAAR (Rattus norvegicus, UniProt P62813+P63138, E206W); assay: Patch clamp, HEK293, mutant GABAAR; conditions: HEK293, read-out: Glutamate potentiation of GABA currents, % of control, normalized to wild-type α1β2γ2
T6 construct: expressed in transfected cells; host or cells: HEK293
T6 sequence (P62813 28-455): as the sequence (P62813 28-455) above
T6 sequence (P63138 26-474 E206W): as the sequence (P63138 26-474) above, with E181W counted along it
T6 sequence (P18508 39-466 partner): as the sequence (P18508 39-466 partner) above
Description: as §5, §1, §2, §3, §4

αE137Dβγ GABAAR = target: T7, αE137Dβγ GABAAR (Rattus norvegicus, UniProt P62813+P63138, E164D); assay: Patch clamp, HEK293, mutant GABAAR; conditions: HEK293, read-out: Glutamate potentiation of GABA currents, % of control, normalized to wild-type α1β2γ2
T7 construct: expressed in transfected cells; host or cells: HEK293
T7 sequence (P62813 28-455 E164D): as the sequence (P62813 28-455) above, with E137D counted along it
T7 sequence (P63138 26-474): as the sequence (P63138 26-474) above
T7 sequence (P18508 39-466 partner): as the sequence (P18508 39-466 partner) above
Description: as §5, §1, §2, §3, §4

αK155Rβγ GABAAR = target: T8, αK155Rβγ GABAAR (Rattus norvegicus, UniProt P62813+P63138, K182R); assay: Patch clamp, HEK293, mutant GABAAR; conditions: HEK293, read-out: Glutamate potentiation of GABA currents, % of control, normalized to wild-type α1β2γ2
T8 construct: expressed in transfected cells; host or cells: HEK293
T8 sequence (P62813 28-455 K182R): as the sequence (P62813 28-455) above, with K155R counted along it
T8 sequence (P63138 26-474): as the sequence (P63138 26-474) above
T8 sequence (P18508 39-466 partner): as the sequence (P18508 39-466 partner) above
Description: as §5, §1, §2, §3, §4

αK155Wβγ GABAAR = target: T9, αK155Wβγ GABAAR (Rattus norvegicus, UniProt P62813+P63138, K182W); assay: Patch clamp, HEK293, mutant GABAAR; conditions: HEK293, read-out: Glutamate potentiation of GABA currents, % of control, normalized to wild-type α1β2γ2
T9 construct: expressed in transfected cells; host or cells: HEK293
T9 sequence (P62813 28-455 K182W): as the sequence (P62813 28-455) above, with K155W counted along it
T9 sequence (P63138 26-474): as the sequence (P63138 26-474) above
T9 sequence (P18508 39-466 partner): as the sequence (P18508 39-466 partner) above
Description: as §5, §1, §2, §3, §4

αE137Wβγ GABAAR = target: T10, αE137Wβγ GABAAR (Rattus norvegicus, UniProt P62813+P63138, E164W); assay: Patch clamp, HEK293, mutant GABAAR; conditions: HEK293, read-out: Glutamate potentiation of GABA currents, % of control, normalized to wild-type α1β2γ2
T10 construct: expressed in transfected cells; host or cells: HEK293
T10 sequence (P62813 28-455 E164W): as the sequence (P62813 28-455) above, with E137W counted along it
T10 sequence (P63138 26-474): as the sequence (P63138 26-474) above
T10 sequence (P18508 39-466 partner): as the sequence (P18508 39-466 partner) above
Description: as §5, §1, §2, §3, §4

`N[C@@H](CCC(=O)O)C(=O)O` [glutamate, Glutamate] was tested, and the activity at 100 µM (α2K104Dβγ GABAAR; Glu 100 μM) was 2.7 ± 3.1%, the activity at 1000 µM (α2K104Dβγ GABAAR; Glu 1 mM) was 15.1 ± 4.4% and the “amplitude of GABA-induced currents with glutamate co-applied” value (rat α1β2 GABAARs) was 331.2 ± 44.5%. The “current produced by glutamate on its own” value (rat α1β2 GABAARs) was “no noticeable current”, the “lowest effective dose (20% potentiation)” value (rat α1β2 GABAARs) was “around 30 μM” and the “potentiation effect at saturated GABA concentration” value (rat α1β2 GABAARs) was “almost no potentiation effect”. The EC50 (rat α1β2 GABAARs; potentiation of 1 μM GABA-induced currents, read-out: EC50 of glutamate potentiation) was about 180 µM, the “potentiation of GABA currents by glutamate” value (α2/β2/γ2 GABAARs) was “capable of potentiating GABA currents” and the activity at 100 µM (αK104Wβγ GABAAR; Glu 100 μM) was 17.8 ± 15.3%. For the same compound, the activity at 1000 µM (αK104Wβγ GABAAR; Glu 1 mM) was 50.8 ± 17.2%, the activity at 100 µM (αβE181Dγ GABAAR; Glu 100 μM) was 155 ± 39.5% and the activity at 1000 µM (αβE181Dγ GABAAR; Glu 1 mM) was 102 ± 24.5%. It also gave an activity at 100 µM (αβE181Wγ GABAAR; Glu 100 μM) of 5.4 ± 4.9%, an activity at 1000 µM (αβE181Wγ GABAAR; Glu 1 mM) of 7.6 ± 4.3% and an activity at 100 µM (αE137Dβγ GABAAR; Glu 100 μM) of 106 ± 18.3%. For the same compound, the activity at 1000 µM (αE137Dβγ GABAAR; Glu 1 mM) was 91.5 ± 15.4%, the activity at 100 µM (αK155Rβγ GABAAR; Glu 100 μM) was 88.4 ± 22.5% and the activity at 1000 µM (αK155Rβγ GABAAR; Glu 1 mM) was 106 ± 20.4%. It also gave an activity at 100 µM (αK155Wβγ GABAAR; Glu 100 μM) of 4 ± 4.7%, an activity at 1000 µM (αK155Wβγ GABAAR; Glu 1 mM) of 29.9 ± 8.8% and an activity at 100 µM (αE137Wβγ GABAAR; Glu 100 μM) of 14.7 ± 6.3%. It also gave an activity at 1000 µM (αE137Wβγ GABAAR; Glu 1 mM) of 21.1 ± 4.4%.
